In patent publication US20130273003A1, “Therapies for Treating Hepatitis C Virus Infection” (priority 2012, published 2013):

Tests used:
HCV = assay: REALIZE trial: SVR by IL28B genotype in Peg-IFN/RBV experienced patients; type: in vivo, Hepatitis C virus; details: TVR 750 mg every 8 hours in combination with Peg-IFN/RBV, treatment-experienced patients
Experimental: This exploratory sub-analysis evaluated virologic response by IL28B genotype (rs12979860) in the Phase III TVR REALIZE trial. REALIZE is an international, multicentre, randomized, double-blind, placebo-controlled trial in Peg-IFN/RBV experienced patients; including prior relapsers, prior partial responders and prior null responders. Patients were included in this sub-analysis if they had consented to genetic testing.
FIG. 1 is a graphic depiction of the REALIZE study design. Drugs were administered in the following dosages: Peg-IFN alfa-2a=180 μg/week; RBV=1000-1200 mg/day; TVR=750 mg every 8 hours; Pbo=placebo. Overall, 527/662 (80%) patients enrolled in REALIZE consented to genetic testing; Data from T12/PR48 and T12(DS)/PR48 arms were pooled since no differences were observed between TVR arms. Randomization was stratified by viral load and prior response. Stopping rules were applied for TVR (Weeks 4, 6, and 8) and Peg-IFN/RBV (Weeks 12, 24, and 36).

genotype 1 HCV = assay: ADVANCE trial: SVR rates, overall and by IL28B genotype; type: in vivo, Hepatitis C virus; details: for SVR rate: overall (full analysis population)
Experimental: IL28B genotype was determined in de-identified left-over specimens available from treatment-naïve genotype 1 HCV patients from ADVANCE U.S. sites. Due to the requirements of the de-identification procedure, only samples from Caucasian patients were tested. A series of associated clinical data was retained with the de-identified samples: HCV genotype, prior treatment response, assigned study arm, study completion, RVR, SVR, baseline viral load, EVR, undetectable at EOT.
IL28B genotyping was performed using 100 ng DNA from whole blood or peripheral blood mononuclear cell preparations with TaqMan® PCR, rs12979860 (ABI)

[1] = system: hepatitis C virus (HCV) replicon; assay: HCV Replicon Cell Assay; type: cell-based
Experimental: Cells containing hepatitis C virus (HCV) replicon were maintained in DMEM containing 10% fetal bovine serum (FBS), 0.25 mg per ml of G418, with appropriate supplements (media A).
On day 1, replicon cell monolayer was treated with a trypsin:EDTA mixture, removed, and then media A was diluted into a final concentration of 100,000 cells per ml wit. 10,000 cells in 100 μl were plated into each well of a 96-well tissue culture plate, and cultured overnight in a tissue culture incubator at 37° C.
On day 2, compounds (in 100% DMSO) were serially diluted into DMEM containing 2% FBS, 0.5% DMSO, with appropriate supplements (media B). The final concentration of DMSO was maintained at 0.5% throughout the dilution series.
Media on the replicon cell monolayer was removed, and then media B containing various concentrations of compounds was added. […]
A Taqman real-time RT-PCR quantification assay was set up with two sets of specific primers and probe. […] Total RNA extractants from treated HCV replicon cells was added to the PCR reactions for quantification of both HCV and BVDV RNA in the same PCR well. […] The level of HCV RNA in each well was calculated according to a standard curve run in the same PCR plate. The percentage of inhibition or decrease of HCV RNA level due to compound treatment was calculated using the DMSO or no compound control as 0% of inhibition. […]

CCC[C@H](NC(=O)[C@@H]1[C@H]2CCC[C@H]2CN1C(=O)[C@@H](NC(=O)[C@@H](NC(=O)c1cnccn1)C1CCCCC1)C(C)(C)C)C(=O)C(=O)NC1CC1 [VX-950]
SVR rates versus Peg-IFN/RBV alone (HCV): increased SVR rates across all IL28B genotypes
SVR rate (genotype 1 HCV; T8PR arm): 69%
SVR rate (genotype 1 HCV; T12PR arm): 75%
SVR (genotype 1 HCV; T12PR, IL28B CC): 90%
patients receiving 24 weeks of total therapy (genotype 1 HCV; T12PR, IL28B CC): 78%
SVR (genotype 1 HCV; T12PR, IL28B CT): 71%
SVR (genotype 1 HCV; T12PR, IL28B TT): 73%
RVR and eRVR rates compared to peginterferon alfa-2a/ribavirin alone (genotype 1 HCV; telaprevir-based regimen): improved RVR and eRVR rates across all IL28B genotypes
achieved SVR (genotype 1 HCV; telaprevir-based regimen, eRVR, IL28B CC): 97%
achieved SVR (genotype 1 HCV; telaprevir-based regimen, eRVR, IL28B CT): 88%
achieved SVR (genotype 1 HCV; telaprevir-based regimen, eRVR, IL28B TT): 85%
achieved SVR (genotype 1 HCV; telaprevir-based regimen, no eRVR, IL28B CC): 63%
achieved SVR (genotype 1 HCV; telaprevir-based regimen, no eRVR, IL28B CT): 33%
achieved SVR (genotype 1 HCV; telaprevir-based regimen, no eRVR, IL28B TT): 46%
achieved SVR (genotype 1 HCV; telaprevir-based regimen, patients who did not have eRVR (48 weeks of therapy)): 43%
achieved SVR (genotype 1 HCV; telaprevir-based regimen, patients who had eRVR (24 weeks of therapy)): 91%
activity in the replicon assay [1]: significant activity
